Measured values taken from the supplement of paper PMC10307832.

Legend:
Test in all cases: relative viability (nuclei count vs DMSO), 5 days (fraction); higher = more cells survive
Carboplatin + Trametinib = compound: C1CC(C1)(C(=O)O)C(=O)O.[NH2-].[NH2-].[Pt+2] [Carboplatin] + CC(=O)Nc1cccc(-n2c(=O)n(C3CC3)c(=O)c3c(Nc4ccc(I)cc4F)n(C)c(=O)c(C)c32)c1 [Trametinib] (partner 0.02 µM)
Procedure, shortened: (§1)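 Lung cancer cell lines in 1536-well plates were dosed by pin tool the day after seeding, either with one drug alone or with a fixed anchor-drug dose plus five library-drug doses (not always all listed) in √10 steps. After 5 days, cells were fixed and their nuclei stained in one step (final 0.05% Triton X-100, 1% formaldehyde, 1 ug/ml Hoechst), then counted on 4× images. Relative viability is the nuclei count in treated wells divided by that in vehicle wells. Values are medians of duplicate plates.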

Carboplatin + Tozasertib = compound: C1CC(C1)(C(=O)O)C(=O)O.[NH2-].[NH2-].[Pt+2] [Carboplatin] + Cc1cc(Nc2cc(N3CCN(C)CC3)nc(Sc3ccc(NC(=O)C4CC4)cc3)n2)n[nH]1 [Tozasertib] (partner 0.1 µM)
Procedure, shortened: as §1

Carboplatin + Foretinib = compound: C1CC(C1)(C(=O)O)C(=O)O.[NH2-].[NH2-].[Pt+2] [Carboplatin] + COc1cc2c(Oc3ccc(NC(=O)C4(C(=O)Nc5ccc(F)cc5)CC4)cc3F)ccnc2cc1OCCCN1CCOCC1 [Foretinib] (partner 0.25 µM)
Procedure, shortened: as §1

MLN4924 + Foretinib = compound: NS(=O)(=O)OC[C@@H]1C[C@@H](n2ccc3c(N[C@H]4CCc5ccccc54)ncnc32)C[C@@H]1O [MLN4924] + COc1cc2c(Oc3ccc(NC(=O)C4(C(=O)Nc5ccc(F)cc5)CC4)cc3F)ccnc2cc1OCCCN1CCOCC1 [Foretinib] (partner 0.25 µM)
Procedure, shortened: as §1

Cell Line | relative viability (Carboplatin + Trametinib; first compound 0.08 µM) | relative viability (Carboplatin + Trametinib; first compound 0.253 µM) | relative viability (Carboplatin + Trametinib; first compound 0.8 µM) | relative viability (Carboplatin + Trametinib; first compound 2.53 µM) | relative viability (Carboplatin + Trametinib; first compound 8 µM) | relative viability (Carboplatin + Tozasertib; first compound 0.08 µM) | relative viability (Carboplatin + Tozasertib; first compound 0.253 µM) | relative viability (Carboplatin + Tozasertib; first compound 0.8 µM) | relative viability (Carboplatin + Tozasertib; first compound 2.53 µM) | relative viability (Carboplatin + Tozasertib; first compound 8 µM) | relative viability (Carboplatin + Foretinib; first compound 0.08 µM) | relative viability (Carboplatin + Foretinib; first compound 0.253 µM) | relative viability (Carboplatin + Foretinib; first compound 0.8 µM) | relative viability (Carboplatin + Foretinib; first compound 2.53 µM) | relative viability (Carboplatin + Foretinib; first compound 8 µM) | relative viability (MLN4924 + Foretinib; first compound 0.04 µM) | relative viability (MLN4924 + Foretinib; first compound 0.1265 µM) | relative viability (MLN4924 + Foretinib; first compound 0.4 µM) | relative viability (MLN4924 + Foretinib; first compound 1.265 µM) | relative viability (MLN4924 + Foretinib; first compound 4 µM)
NCI-H1793 | 0.39 | 0.455 | 0.48 | 0.386 | 0.431 | 0.446 | 0.386 | 0.301 | 0.317 | 0.501 | 0.939 | 0.773 | 0.882 | 0.718 | 0.724 | 0.822 | 1.08 | 0.957 | 0.461 | 0.256
HCC-44 | 1.14 | 1.08 | 1.02 | 1.1 | 0.903 | 1.14 | 0.949 | 0.803 | 0.603 | 0.517 |  |  |  |  |  |  |  |  |  | 
NCI-H3122 | 0.227 | 0.259 | 0.251 | 0.251 | 0.226 | 0.371 | 0.336 | 0.381 | 0.329 | 0.411 | 0.944 | 0.986 | 0.926 | 0.91 | 0.923 | 0.903 | 0.385 | 0.232 | 0.106 | 0.0762
COR-L23 | 0.619 | 0.645 | 0.559 | 0.509 | 0.229 | 0.237 | 0.217 | 0.186 | 0.144 | 0.148 | 0.948 | 0.94 | 0.91 | 0.729 | 0.512 | 0.985 | 0.844 | 0.644 | 0.299 | 0.141
201T | 0.833 | 0.693 | 0.699 | 0.714 | 0.694 | 0.988 | 0.933 | 0.985 | 0.942 | 0.89 | 1.28 | 1.05 | 0.917 | 0.867 | 0.618 | 1.23 | 0.842 | 0.561 | 0.194 | 0.175
NCI-H23 | 0.414 | 0.425 | 0.364 | 0.366 | 0.389 | 0.4 | 0.315 | 0.385 | 0.356 | 0.317 | 1.02 | 1.01 | 0.886 | 0.846 | 0.826 | 0.968 | 0.839 | 0.767 | 0.285 | 0.184
LCLC-103H | 0.703 | 0.703 | 0.68 | 0.689 | 0.654 | 0.517 | 0.466 | 0.439 | 0.532 | 0.473 | 0.752 | 0.83 | 0.806 | 0.703 | 0.632 | 0.85 | 0.896 | 0.861 | 0.175 | 0.15
NCI-H2087 | 0.242 | 0.257 | 0.171 | 0.198 | 0.175 | 0.272 | 0.242 | 0.23 | 0.272 | 0.226 | 1.18 | 1.14 | 1.15 | 0.957 | 0.757 | 1.13 | 0.669 | 0.419 | 0.107 | 0.0968
NCI-H1944 | 0.439 | 0.419 | 0.439 | 0.362 | 0.338 | 0.245 | 0.247 | 0.263 | 0.24 | 0.237 | 0.971 | 0.855 | 0.854 | 0.789 | 0.601 | 0.771 | 0.58 | 0.301 | 0.182 | 0.161
HARA | 0.68 | 0.865 | 0.917 | 0.412 | 0.607 | 0.146 | 0.122 | 0.09 | 0.11 | 0.11 | 1.05 | 1.03 | 0.83 | 0.798 | 0.744 | 0.838 | 0.537 | 0.83 | 0.0708 | 0.0645
NCI-H2347 | 0.319 | 0.271 | 0.244 | 0.287 | 0.265 | 0.54 | 0.547 | 0.637 | 0.633 | 0.56 | 1.51 | 1.01 | 1.14 | 1.23 | 0.788 | 0.832 | 0.906 | 0.567 | 0.528 | 0.402
COR-L 105 | 0.472 | 0.445 | 0.441 | 0.456 | 0.442 | 0.37 | 0.337 | 0.348 | 0.359 | 0.345 | 0.986 | 0.993 | 0.902 | 0.897 | 0.578 | 0.697 | 0.654 | 0.396 | 0.292 | 0.258
A-427 | 0.85 | 0.812 | 0.747 | 0.81 | 0.739 | 0.188 | 0.237 | 0.238 | 0.219 | 0.221 | 1.16 | 1.15 | 1.03 | 0.992 | 1.16 | 0.742 | 0.236 | 0.264 | 0.185 | 0.178
HCC-15 | 0.371 | 0.399 | 0.381 | 0.391 | 0.371 | 0.48 | 0.553 | 0.34 | 0.342 | 0.303 | 1.05 | 1.04 | 0.969 | 0.845 | 0.715 | 0.688 | 0.219 | 0.183 | 0.109 | 0.0915
NCI-H1623 |  |  |  |  |  | 0.445 | 0.446 | 0.484 | 0.449 | 0.402 | 0.959 | 0.919 | 0.884 | 0.747 | 0.725 | 0.704 | 0.536 | 0.468 | 0.289 | 0.294
NCI-H2342 | 0.825 | 0.891 | 0.903 | 0.924 | 0.81 | 0.555 | 0.529 | 0.502 | 0.406 | 0.547 | 0.949 | 0.961 | 0.993 | 0.865 | 0.785 | 1.17 | 1.06 | 1.24 | 0.76 | 0.472
NCI-H2023 | 0.599 | 0.633 | 0.542 | 0.343 | 0.163 | 0.419 | 0.394 | 0.402 | 0.262 | 0.158 | 0.859 | 0.926 | 0.897 | 0.695 | 0.282 | 0.987 | 0.719 | 0.406 | 0.0781 | 0.0729
